Results from ChEMBL document CHEMBL4393699, “Ligand retargeting by binding site analogy” (Eur J Med Chem, 2019).
Active and inactive are the calls of the source. The rule behind the calls is not given here.

Columns and labels:
HeLa = assay: Antiproliferative activity against human HeLa cells assessed as reduction in cell growth incubated for 72 hrs by resazurin dye based fluorescent assay
Beta-secretase 1 [1] = molecular target: T1, Beta-secretase 1 (Homo sapiens, UniProt P56817); assay: Inhibition of BACE1 (unknown origin) using HiLyte Fluo488/QXL-520 as substrate by FRET assay
[2] = molecular target: Voltage-gated inwardly rectifying potassium channel KCNH2 (Homo sapiens, UniProt Q12809); assay: Inhibition of fluorescently labeled tracer binding to human ERG at 200 uM by competitive binding assay
Beta-secretase 1 [3] = molecular target: T1, Beta-secretase 1; assay: Inhibition of BACE1 (unknown origin) at 200 uM using HiLyte Fluo488/QXL-520 as substrate by FRET assay
Homo sapiens = species on record: Homo sapiens; assay: Selectivity ratio of IC50 for BACE1 (unknown origin) to IC50 for recombinant His-tagged […] (unknown origin) expressed in Escherichia coli BL21 (DE3) cells

T1 sequence (P56817 whole entry): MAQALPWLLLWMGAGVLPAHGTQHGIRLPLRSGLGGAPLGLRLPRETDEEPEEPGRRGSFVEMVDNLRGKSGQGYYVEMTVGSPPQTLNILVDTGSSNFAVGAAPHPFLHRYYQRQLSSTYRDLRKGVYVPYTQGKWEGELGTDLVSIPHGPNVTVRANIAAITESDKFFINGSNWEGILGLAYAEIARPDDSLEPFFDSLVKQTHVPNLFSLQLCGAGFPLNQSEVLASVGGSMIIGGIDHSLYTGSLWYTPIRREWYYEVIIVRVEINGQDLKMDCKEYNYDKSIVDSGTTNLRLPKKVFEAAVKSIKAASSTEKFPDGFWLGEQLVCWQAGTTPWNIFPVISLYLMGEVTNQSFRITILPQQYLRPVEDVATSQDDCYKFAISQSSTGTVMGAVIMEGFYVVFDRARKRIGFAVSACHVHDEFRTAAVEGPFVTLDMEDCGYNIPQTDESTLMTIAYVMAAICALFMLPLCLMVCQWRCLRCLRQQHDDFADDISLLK
Chain of Voltage-gated inwardly rectifying potassium channel KCNH2 (Q12809 whole entry): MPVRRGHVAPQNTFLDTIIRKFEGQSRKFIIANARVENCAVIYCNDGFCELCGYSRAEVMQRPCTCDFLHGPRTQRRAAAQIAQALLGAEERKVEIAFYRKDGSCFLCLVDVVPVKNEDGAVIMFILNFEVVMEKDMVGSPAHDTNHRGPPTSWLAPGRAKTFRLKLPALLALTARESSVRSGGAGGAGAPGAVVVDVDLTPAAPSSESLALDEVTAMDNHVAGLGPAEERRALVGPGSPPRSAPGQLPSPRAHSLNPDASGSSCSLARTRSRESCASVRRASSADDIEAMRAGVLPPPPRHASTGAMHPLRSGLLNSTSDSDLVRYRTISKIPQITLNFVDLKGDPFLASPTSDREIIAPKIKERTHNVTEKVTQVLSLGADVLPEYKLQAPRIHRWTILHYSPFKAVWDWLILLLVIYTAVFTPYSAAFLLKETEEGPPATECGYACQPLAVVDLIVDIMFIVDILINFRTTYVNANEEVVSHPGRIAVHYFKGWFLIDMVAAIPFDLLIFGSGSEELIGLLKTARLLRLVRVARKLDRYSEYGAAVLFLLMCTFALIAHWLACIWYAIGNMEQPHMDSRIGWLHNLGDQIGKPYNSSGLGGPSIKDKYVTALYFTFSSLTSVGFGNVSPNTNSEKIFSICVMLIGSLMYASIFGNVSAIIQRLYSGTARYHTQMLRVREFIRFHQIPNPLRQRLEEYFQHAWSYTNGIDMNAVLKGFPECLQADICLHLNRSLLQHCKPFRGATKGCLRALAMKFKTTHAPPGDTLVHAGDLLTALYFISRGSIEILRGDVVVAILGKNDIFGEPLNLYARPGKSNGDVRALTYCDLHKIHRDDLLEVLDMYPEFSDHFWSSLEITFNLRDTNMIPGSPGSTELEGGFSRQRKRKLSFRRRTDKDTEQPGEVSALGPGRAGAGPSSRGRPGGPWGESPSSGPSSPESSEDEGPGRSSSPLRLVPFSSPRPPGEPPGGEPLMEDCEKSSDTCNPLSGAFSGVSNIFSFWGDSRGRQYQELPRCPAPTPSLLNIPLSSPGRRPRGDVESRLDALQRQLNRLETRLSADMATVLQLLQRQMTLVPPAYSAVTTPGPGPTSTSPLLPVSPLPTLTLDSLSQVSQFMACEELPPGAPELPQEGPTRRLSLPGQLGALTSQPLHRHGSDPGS

Compound: Nc1nc(NC2CC2)cc(-c2cccc(Cl)c2Cl)n1
- GI50 (HeLa): 3.8 µM

Compound: Nc1nc2c(-c3ccncc3F)ccnc2[nH]1
- GI50 (HeLa): 30 to 90 µM
- IC50 (Beta-secretase 1 [1]): > 200 µM
- inhibition (INH) [2]: Not Active
- inhibition (Beta-secretase 1 [3]): inactive

Compound: NCCc1ccc(O)c(C2CCCCC2)c1
- Ratio IC50 (Homo sapiens): 5

Compound: Nc1nc2ncccc2[nH]1
- IC50 (Beta-secretase 1 [1]): > 200 µM
- inhibition (Beta-secretase 1 [3]): inactive
